Assay results taken from patent US4835287A, “Antibiotic substance” (SS Pharmaceutical Co., Ltd., priority 1987, dated 1989).
Converted amounts (≈) assume the structure as drawn.

Experiments:
[1] = test system: Staphylococcus aureus 209P; assay: Antimicrobial activity (MIC); format: cell-based; details: read-out: Minimal Inhibitory Concentrations (MICs)
[2] = test system: Candida albicans NHL 4019; assay: Antimicrobial activity (MIC); format: cell-based; details: NHL4019, read-out: Minimal Inhibitory Concentrations (MICs)
Serratia marcescens NHL = assay: Antimicrobial activity (MIC); format: cell-based; details: read-out: Minimal Inhibitory Concentrations (MICs)
[3] = test system: Pseudomonas aeruqinosa IFO 13736; assay: Antimicrobial activity (MIC); format: cell-based; details: IFO13736, read-out: Minimal Inhibitory Concentrations (MICs)
[4] = test system: Klebsiella pneumoniae ATCC 10031; assay: Antimicrobial activity (MIC); format: cell-based; details: ATCC10031, read-out: Minimal Inhibitory Concentrations (MICs)
[5] = test system: Aspergillus niger ATCC 9642; assay: Antimicrobial activity (MIC); format: cell-based; details: ATCC9642, read-out: Minimal Inhibitory Concentrations (MICs)
[6] = test system: Staphylococcus epidermidis ATCC 12228; assay: Antimicrobial activity (MIC); format: cell-based; details: ATCC12228, read-out: Minimal Inhibitory Concentrations (MICs)
Solubility to solvents = format: physicochemical
[7] = test system: Staphylococcus aureus Terajima; assay: Antimicrobial activity (MIC); format: cell-based; details: read-out: Minimal Inhibitory Concentrations (MICs)
mouse leukemia P-388 = assay: Antitumor activity (life prolongation) on mouse leukemia P-388; format: in vivo; details: i.p. once a day ten times, CDF1 male mice, P-388 i.p.
Method: Curing effects of substances SS42227A and B on mouse leukemia P-388 were examined according to the following method. In the Table, the antitumor activities, or the effect of life prolongation, are expressed as the percentage of the survival time (days) of treated groups (T) per the survival time (days) for the untreated or control group (C).
CDF1 (male: supplied by Charles River Japan Inc.) were inoculated intraperitoneally with 1×10^6 P-388 cells. Then, commencing at 24 hours thereafter, substance SS42227A was intraperitoneally injected into the mice once a day and ten times in total.

[8] = test system: Pyricularia oryzae IAM 5016; assay: microbe, parasite or virus in culture; format: cell-based; details: IAM5016, read-out: Minimal Inhibitory Concentrations (MICs)
Escherichia coli 0-1 = assay: Antimicrobial activity (MIC); format: cell-based; details: 01, read-out: Minimal Inhibitory Concentrations (MICs)
[9] = test system: Bacillus subtilis ATCC 6633; assay: Antimicrobial activity (MIC); format: cell-based; details: ATCC6633, read-out: Minimal Inhibitory Concentrations (MICs)
[10] = test system: Staphylococcus aureus Smith; assay: Antimicrobial activity (MIC); format: cell-based; details: read-out: Minimal Inhibitory Concentrations (MICs)
Sarcina lutea ATCC 9341 = assay: Antimicrobial activity (MIC); format: cell-based; details: Micrococcus luteus, ATCC9341, read-out: Minimal Inhibitory Concentrations (MICs)
[11] = test system: Trichophyton tonsurans IFO 5928; assay: Antimicrobial activity (MIC); format: cell-based; details: IFO5928, read-out: Minimal Inhibitory Concentrations (MICs)
[12] = test system: Streptococcus faecalis IFO 12964; assay: Antimicrobial activity (MIC); format: cell-based; details: Enterococcus faecalis, IFO12964, read-out: Minimal Inhibitory Concentrations (MICs)
[13] = Property as to basic, acid or neutral; format: physicochemical
[14] = test system: Micrococcus lysodeikticus IFO 3333; assay: Antimicrobial activity (MIC); format: cell-based; details: Micrococcus luteus, IFO3333, read-out: Minimal Inhibitory Concentrations (MICs)
Shigella flexneri 2b = assay: Antimicrobial activity (MIC); format: cell-based; details: read-out: Minimal Inhibitory Concentrations (MICs)
Proteus rettgeri = assay: Antimicrobial activity (MIC); format: cell-based; details: Providencia rettgeri, read-out: Minimal Inhibitory Concentrations (MICs)

| SMILES | MIC [1] [µg/mL] | MIC [2] [µg/mL] | MIC (Serratia marcescens NHL) [µg/mL] | MIC [3] [µg/mL] | MIC [4] [µg/mL] | MIC [5] [µg/mL] | MIC [6] [µg/mL] | Solubility to solvents (Solubility to solvents; acetone) | Solubility to solvents (Solubility to solvents; chloroform) | Solubility to solvents (Solubility to solvents; diethyl ether) | Solubility to solvents (Solubility to solvents; ethyl acetate) | Solubility to solvents (Solubility to solvents; methanol) | Solubility to solvents (Solubility to solvents; n-hexane) | Solubility to solvents (Solubility to solvents; water) | MIC [7] [µg/mL] | MIC [8] [µg/mL] | MIC (Escherichia coli 0-1) [µg/mL] | MIC [9] [µg/mL] | MIC [10] [µg/mL] | MIC (Sarcina lutea ATCC 9341) [µg/mL] | other results |
| --- | --- | --- | --- | --- | --- | --- | --- | --- | --- | --- | --- | --- | --- | --- | --- | --- | --- | --- | --- | --- | --- |
| COc1cc(C(=O)OC(C(=O)NC(C(=O)NCC(C)=O)=C2C(OC(C)=O)C(O)C3CN23)C2(C)CO2)c2cccc(C)c2c1 (stereo not shown) [SS42227A] | 6.25 (≈ 10.5 µM) | > 100 | 100 (≈ 168 µM) | > 100 | 3.12 (≈ 5.24 µM) | > 100 | 6.25 (≈ 10.5 µM) | Soluble | Soluble | Soluble | Soluble | Soluble | Sparingly soluble | Sparingly soluble | 6.25 (≈ 10.5 µM) | 100 (≈ 168 µM) | > 100 | 0.78 (≈ 1.31 µM) | 1.56 (≈ 2.62 µM) | < 0.2 | Antitumor Activity T/C (survival time treated/control) (mouse leukemia P-388; 2 μg/kg/day): 163%; Antitumor Activity T/C (survival time treated/control) (mouse leukemia P-388; 4 μg/kg/day): 144%; Antitumor Activity T/C (survival time treated/control) (mouse leukemia P-388; 8 μg/kg/day): 154%; Antitumor Activity T/C (survival time treated/control) (mouse leukemia P-388; 15 μg/kg/day): 192%; Antitumor Activity T/C (survival time treated/control) (mouse leukemia P-388; 15.1 μg/kg/day): 170%; Antitumor Activity T/C (survival time treated/control) (mouse leukemia P-388; 30 μg/kg/day): 211%; Antitumor Activity T/C (survival time treated/control) (mouse leukemia P-388; 31.2 μg/kg/day): 195%; Antitumor Activity T/C (survival time treated/control) (mouse leukemia P-388; 60 μg/kg/day): 77%; Antitumor Activity T/C (survival time treated/control) (mouse leukemia P-388; 62.5 μg/kg/day): 152%; MIC [11]: > 100 µg/mL; MIC [12]: 0.78 µg/mL (≈ 1.31 µM); Property as to basic, acid or neutral [13]: Neutral; MIC [14]: < 0.2 µg/mL; MIC (Shigella flexneri 2b): < 0.2 µg/mL; MIC (Proteus rettgeri): 100 µg/mL (≈ 168 µM) |
| COc1cc(C(=O)OC(C(=O)NC(C(=O)NC(=CO)C(C)=O)=C2C(OC(C)=O)C(O)C3CN23)C2(C)CO2)c2cccc(C)c2c1 (stereo not shown) [SS42227B] | 50 (≈ 80.2 µM) | > 100 | > 100 | > 100 | 50 (≈ 80.2 µM) | > 100 | 100 (≈ 160 µM) | Soluble | Soluble | Sparingly soluble | Soluble | Soluble | Sparingly soluble | Sparingly soluble | 50 (≈ 80.2 µM) | > 100 | > 100 | 50 (≈ 80.2 µM) | 1.56 (≈ 2.5 µM) | < 0.2 | MIC [11]: > 100 µg/mL; MIC [12]: 0.78 µg/mL (≈ 1.25 µM); Property as to basic, acid or neutral [13]: Acid; MIC [14]: < 0.2 µg/mL; MIC (Shigella flexneri 2b): 0.78 µg/mL (≈ 1.25 µM); MIC (Proteus rettgeri): > 100 µg/mL |
